≈ marks a conversion by molar mass, not a printed value. Blank lines part the entries; values can stand above or below the compound they belong to.
What was measured:
HIV = test: Anti-HIV activity in MT-4 cells, development of virus antigen by indirect fluorescent antibody method; type: cell-based; conditions: for EC50: Human immunodeficiency virus 1, MT4, 96 h, MT-4 cells, 4 days culture after HIV infection, read-out: Development of Virus Antigen Activity ED50; for anti-HIV activity (in words): summary of results
Procedure: MT-4 cell (about 10,000 cells/ml) was added to a 24 well tray, and then 100 μl of a solution containing a predetermined quantity of Compound No. 1 of the present invention was added. After culturing at 37° C. for 5 hours in 5% (v/v) carbon dioxide incubator, 10^3 to 10^4 infection units of HIV was added and cultured for 4 days. Then, a part of the cultured fluid was coated onto a slide glass and immobilized with acetone, after which development of virus antigen was observed by indirect fluorescent antibody method.
As the primary antibody of the fluorescent antibody method, a serum of AIDS patient was used. As its secondary antibody, FITC-labelled […] was used.

[1] = tested on: cytomegalovirus (A0169 strain); test: Anti-cytomegalovirus activity, plaque formation in human fetal fibroblasts; type: cell-based; conditions: Human betaherpesvirus 5, Fibroblast, 240 h, 100 PFU, 37° C., 10 days, read-out: Anti-cytomegalovirus Activity ED50 (50% inhibitory value)
Procedure: Anti-cytomegalovirus activity was determined by the following manner. A 35 mm.PHI. dish containing a single layer of human fetal fibroblasts was infected with 100 PFU (plaque forming units) of cytomegalovirus (A0169 strain). After adsorption for one hour, a medium (0.5% agarose, 2% fetal calf serum) containing a varied concentration of the compound of the present invention was superposed thereon, and the whole was cultured at 37° C. for 10 days in 5% (v/v) carbon dioxide incubator, after which the formation of plaque was measured. The results are shown in Table 3 in terms of 50% inhibitory value (ED50).

[2] = tested on: DNA virus such as cytomegalovirus, hepatitis B virus, herpes virus; test: Antiviral activity (summary statement); conditions: summary of results
[3] = biological target: HBV-intrinsic DNA polymerase (Hepatitis B virus adr4, UniProt P12933); test: Inhibitory activity on HBV-intrinsic DNA polymerase, HBV core particles from HB611 cells; type: biochemical
HBV-intrinsic DNA polymerase, sequence (P12933 whole entry): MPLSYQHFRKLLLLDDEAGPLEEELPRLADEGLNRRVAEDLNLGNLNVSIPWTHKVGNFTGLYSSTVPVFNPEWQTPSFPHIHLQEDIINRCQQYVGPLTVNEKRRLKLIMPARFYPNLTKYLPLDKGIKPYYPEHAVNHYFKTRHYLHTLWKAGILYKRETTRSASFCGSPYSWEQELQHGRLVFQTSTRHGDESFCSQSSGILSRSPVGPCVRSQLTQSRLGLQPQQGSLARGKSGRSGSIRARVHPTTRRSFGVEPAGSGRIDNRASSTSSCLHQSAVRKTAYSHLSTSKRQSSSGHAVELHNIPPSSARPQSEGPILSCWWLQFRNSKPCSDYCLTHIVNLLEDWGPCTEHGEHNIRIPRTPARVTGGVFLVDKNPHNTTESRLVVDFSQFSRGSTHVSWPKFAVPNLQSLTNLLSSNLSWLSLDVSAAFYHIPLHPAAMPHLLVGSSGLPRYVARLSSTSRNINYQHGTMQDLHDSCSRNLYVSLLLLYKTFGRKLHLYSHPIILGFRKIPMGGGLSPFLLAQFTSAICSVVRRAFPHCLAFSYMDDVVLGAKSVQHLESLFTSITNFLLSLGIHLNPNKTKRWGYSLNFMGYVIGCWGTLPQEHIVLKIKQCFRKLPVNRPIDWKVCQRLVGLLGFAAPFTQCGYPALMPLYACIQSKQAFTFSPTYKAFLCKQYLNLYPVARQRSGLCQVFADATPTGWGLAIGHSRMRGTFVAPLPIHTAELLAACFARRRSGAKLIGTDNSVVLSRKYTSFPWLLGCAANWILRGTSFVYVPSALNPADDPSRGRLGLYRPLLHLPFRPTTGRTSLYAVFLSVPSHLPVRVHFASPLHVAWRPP
Procedure: 1. Partial purification of HBV core particles
After HB611 cells were homogenized with buffer solution for extraction shown below, the centrifugal supernatant (14000 rpm, 0° C., 30 minutes) was overlaid on 30% saccharose-containing buffer solution for extraction, which was subjected to supercentrifugation (35000 rpm, 4° C., 18 hours) to give crude core particle precipitates. The crude core particles were suspended in the buffer solution for extraction and purified by cesium chloride density-gradient centrifugation method to give partially purified core particles showing a density of 1.30 to 1.35 g/ml.
Buffer solution for extraction:
2-mercaptoethanol/1 mM PMSF): 10 mM
Tris-hydrochloride (pH 7.4), 1 mM EDTA, 10 mM
2. Measurement of HBV-intrinsic polymerase activity
The partially purified core particles were added to the reaction solution shown below. After incubating at 37° C. for 2 hours in the presence of Compound No. 3 in various concentrations, dCTP was added thereto in a final concentration of 1 mM. After incubation at 37° C. for an additional an hour, proteinase K, SDS, EDTA and tRNA were added thereto in final concentrations of 0.5 mg/ml, 1%, 10 mM and 200 μg/ml, respectively, followed by incubation at 45° C. for 2 hours. Thereafter HBV-DNA was purified by phenolchloroform extraction and ethanol precipitation and then subjected to electrophoresis with 1.5% agarose. Radioactive uptake in HBV-DNA was determined by autoradiography. The autoradiogram was scanned by a densitometer to calculate the inhibitory activity of Compound No. 3 against HBV-DNA polymerase.
Reaction solution: containing 50 mM Tris-hydrochloride
(pH 7.4), 30 mM magnesium chloride, 0.1 M
ammonium chloride, 0.2% 2-mercaptoethanol,
200 μM each of dATP, dGTP and dTTP

[4] = biological target: T1, reverse transcriptase (RTase) of HIV (Human immunodeficiency virus type 1 group M subtype B, UniProt P04585); test: Inhibition of HIV reverse transcriptase (RTase), 3H-AMP uptake; type: biochemical, human immunodeficiency virus (HTLV-IIIB)
T1 construct: Measurement of Activity of Reverse Transcriptase (RTase) of HIV; endogenous in cells; host or cells: MOLT-4/HTLV-IIIB cells persistently infected with HIV (viral protein made by the infection; crude lysate)
Procedure: Measurement of Activity of Reverse Transcriptase (RTase) of HIV
MOLT-4/HTLV-IIIB cells which were persistently infected with HIV were destroyed with Triton X-100 or the like to prepare crude enzyme (RTase).
Using poly(dT) and oligo(dA) as template primers, the following reaction solution was used.
2. Composition of reaction solution
______________________________________
5 mg/ml Bovine serum albumin
1M Tris-HCl buffer (pH 7.8)
100 mM Dithiothreitol 2.0
5 units/ml Oligo(dA) 4.0
Uptake of ^3 H-AMP in the acid-insoluble fraction in the reaction solution under the above conditions was determined by a liquid scintillation counter.

EC50 (HIV): 0.1 µg/mL (≈ 0.302 µM)
SMILES: Nc1ncnc2c1ncn2[C@@H]1O[C@H](COP(=O)(O)O)[C@H]1CO [Compound No. 1]
anti-HIV activity (in words) (HIV): excellent anti-HIV activity | EC50 [1]: 1.85 µg/mL (≈ 5.59 µM)

EC50 (HIV): 0.007 µg/mL (≈ 0.0232 µM)
SMILES: Nc1ncnc2c1ncn2[C@H]1C[C@@H](COP(=O)(O)O)O1 [Compound No. 6]
anti-HIV activity (in words) (HIV): excellent anti-HIV activity

Second part, the compound before the results:

SMILES: Nc1nc2c(ncn2[C@@H]2O[C@H](COP(=O)(O)O)[C@H]2CO)c(=O)[nH]1 [Compound No. 5]
antiviral activity against DNA virus (in words) [2]: excellent antiviral activity against DNA virus | EC50 [1]: 0.4 µg/mL (≈ 1.15 µM)

SMILES: Nc1nc2c(ncn2[C@@H]2O[C@H](COP(=O)(O)OP(=O)(O)OP(=O)(O)O)[C@H]2CO)c(=O)[nH]1 [Compound No. 3]
inhibition at 100 µM ([3]; 100 μM, read-out: Inhibition Rate (HBV-DNA polymerase)): 50.7% | inhibition at 200 µM ([3]; 200 μM, read-out: Inhibition Rate (HBV-DNA polymerase)): 88.8% | inhibition at 400 µM ([3]; 400 μM, read-out: Inhibition Rate (HBV-DNA polymerase)): 96.8% | inhibition of DNA polymerase of DNA virus (in words) ([3]; summary of results, 'the aforesaid DNA virus'): inhibits DNA polymerase of the aforesaid DNA virus

SMILES: Nc1ncnc2c1ncn2[C@@H]1O[C@H](COP(=O)(O)OP(=O)(O)OP(=O)(O)O)[C@H]1CO [Compound No. 2]
inhibition at 4.17 µM ([4]; 4.17 μM, 37° C., 1 hour): 1% | inhibition at 12.5 µM ([4]; 12.5 μM, 37° C., 1 hour): 33.9% | inhibition at 125 µM ([4]; 125 μM, 37° C., 1 hour): 93% | inhibition at 417 µM ([4]; 417 μM, 37° C., 1 hour): 98.8% | inhibition at 42.7 µM ([4]; read-out: RTase Inhibition (%)): 69.4% | reverse transcriptase inhibitory action of HIV (in words) ([4]; summary of results): shows reverse transcriptase inhibitory action of HIV

Source: patent publication US5179084A, “Antiviral phosphoric acid esters of oxetanocins” (Nippon Kayaku Kabushiki Kaisha, priority 1989, dated 1993)
